Experimental findings from patent US6790865B2, “2-methylpropionic acid derivatives and pharmaceutical compositions comprising the same” (Kissei Pharmaceutical Co., Ltd., priority 1998, dated 2004) are described below.

One data set deals with T1, β2-adrenoceptor (Rattus norvegicus, UniProt P10608).
T1 construct: Uteri of pregnant SD rats (pregnancy day 21) were isolated; from tissue; host or cells: longitudinal uterine strips of pregnant SD rats (day 21)
The experiment in a line: β2-adrenoceptor stimulating effects, isolated pregnant rat uterus contraction inhibition (Magnus method). It is filed as cell-based. Particulars: isolated uteri of pregnant SD rats (pregnancy day 21); spontaneous contractions summed over 5 minutes; read-out: EC50 (concentration producing 50% inhibition of uterine contraction). The protocol: Also, uteri of pregnant rats were isolated and preparations were made. The experiment was conducted according to the Magnus method. The sum of uterine contractions during 5 minutes before the addition of the drug was expressed as 100%. The drug was added cumulatively. The β2-adrenoceptor stimulating effects were evaluated as the concentration of the drug required when the sum of the contractions during 5 minutes after the addition of the drug produces 50% decrease of the sum of the contractions during 5 minutes before the addition of the drug (i.e., EC50 value).
The Experiment for Measuring β2-Adrenoceptor Stimulating Effects
Uteri of pregnant SD rats (pregnancy day 21) were isolated and longitudinal strips of approximately 15 mm in length and approximately 5 mm in width free from the basal plate were prepared. The experiment was conducted according to the Magnus method. The preparations with a tension of 0.5 g were exposed to Locke-Ringer solution maintained at 37° C. and gassed with a mixture of 95% oxygen and 5% carbon dioxide. Spontaneous contractions of myometrium were isometrically measured with a force-displacement transducer and recorded on a rectigram. The drug was cumulatively added to the Magnus bath every 5 minutes. The drug efficacy was evaluated as the concentration of the drug required to produce 50% of the inhibition of uterine contraction (i.e., EC50 value) by comparing the sum of uterine contraction during 5 minutes after the addition of the drug with the sum of uterine contractions during 5 minutes before the addition of the drug which was expressed as 100%.

For the next data set, the target named is T2, β1-adrenoceptor (Rattus norvegicus, UniProt P18090).
T2 construct: Atria of male SD rats (250 to 400 g in body weight) were isolated; from tissue; host or cells: isolated atria of male SD rats
Kind of data set: β1-adrenoceptor stimulating effects, isolated rat atria heart rate increase (Magnus method). It counts as cell-based. Particulars: isolated male SD rat atria; 100% = heart rate increase after 10^−8M isoproterenol; read-out: EC50 (concentration producing 50% increase of heart rate). On the procedure: Namely, atria of rats were isolated and preparations were made. The experiment was conducted according to the Magnus method. The increment of heart rate after the addition of isoproterenol (10^−8M) was expressed as 100%. The drug was added cumulatively. The β1-adrenoceptor stimulating effects were evaluated as the concentration of the drug required to produce 50% increase of heart rate (i.e., EC50 value).
The Experiment for Measuring β1-Adrenoceptor Stimulating Effects
Atria of male SD rats (250 to 400 g in body weight) were isolated and the experiment was conducted according to the Magnus method. The preparations with a tension of 0.5 g were exposed to Krebs-Henseleit solution maintained at 37° C. and gassed with a mixture of 95% oxygen and 5% carbon dioxide. The cardiac contractility was isometrically measured with a force-displacement transducer, and heart rate was recorded on a rectigram via a tachometer. The drug was added cumulatively. The drug efficacy was evaluated as the concentration of the drug required to produce 50% increase of heart rate per minute (i.e., EC50 value). In this experiment, increase of heart rate per minute after addition of 10^−8M of isoproterenol was expressed as 100%.

The target in the next data set is β3-adrenoceptor (Mustela putorius furo, UniProt M3YEU4). The experiment in a line: β3-adrenoceptor stimulating effects, isolated ferret urinary bladder smooth muscle relaxation (Magnus method). It counts as cell-based. Particulars: isolated male ferret urinary bladder smooth muscle strips; 0% = maximal relaxation after 10^−5M forskolin; read-out: EC50 (concentration producing 50% decrease of urinary bladder tension). The protocol: Namely, urinary bladders of ferrets were isolated and preparations were made. The experiment was conducted according to the Magnus method. The […] tension without the addition of the drug is expressed as 100%, and the tension of maximal relaxation after the addition of 10^−5M of forscolin was expressed as 0%. The drug was added cumulatively. The β3-adrenoceptor stimulating effects were evaluated as the concentration of the drug required to produce 50% decrease of the tension (i.e., EC50 value) (The Japanese Journal of Urology, Vol.89, No.2, p.272 (1998)).
The Experiment for Measuring β3-Adrenoceptor Stimulating Effects
Urinary bladders of male ferrets (1100 to 1400 g in body weight) were isolated and urinary bladder smooth muscle strips of approximately 10 mm in length and approximately 2 mm in width were prepared. The experiment was conducted according to the Magnus method. The preparations with a tension of 1 g were exposed to Krebs-Henseleit solution maintained at 37° C. and gassed with a mixture of 95% oxygen and 5% carbon dioxide. Basal tensions of urinary bladder were isometrically measured with a force-displacement transducer and recorded on a rectigram. […] In this experiment, tension of urinary bladder smooth muscle before the addition of the drug was expressed as 100% and tension of maximal relaxation after the addition of 10^−5M concentration of forskolin was expressed as 0%.

The next data set relates to male ICR rats. The experiment in a line: Acute toxicity test. It counts as in vivo. The text has this: Furthermore, the compounds represented by the above general formula (I) of the present invention are very safe compounds.

Where a name gives a salt, the structure may show the parent alone.

T1 sequence (P10608 whole entry): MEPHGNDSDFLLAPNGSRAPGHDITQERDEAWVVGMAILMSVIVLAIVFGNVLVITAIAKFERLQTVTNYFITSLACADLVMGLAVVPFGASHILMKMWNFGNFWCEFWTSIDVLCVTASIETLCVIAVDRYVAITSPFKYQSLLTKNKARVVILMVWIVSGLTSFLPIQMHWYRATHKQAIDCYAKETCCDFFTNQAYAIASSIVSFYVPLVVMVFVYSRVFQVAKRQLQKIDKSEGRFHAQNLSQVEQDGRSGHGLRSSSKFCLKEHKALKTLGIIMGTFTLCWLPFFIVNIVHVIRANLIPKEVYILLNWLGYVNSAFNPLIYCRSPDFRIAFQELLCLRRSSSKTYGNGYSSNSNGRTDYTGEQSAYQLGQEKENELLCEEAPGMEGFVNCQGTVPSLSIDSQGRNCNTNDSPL
T2 sequence (P18090 whole entry): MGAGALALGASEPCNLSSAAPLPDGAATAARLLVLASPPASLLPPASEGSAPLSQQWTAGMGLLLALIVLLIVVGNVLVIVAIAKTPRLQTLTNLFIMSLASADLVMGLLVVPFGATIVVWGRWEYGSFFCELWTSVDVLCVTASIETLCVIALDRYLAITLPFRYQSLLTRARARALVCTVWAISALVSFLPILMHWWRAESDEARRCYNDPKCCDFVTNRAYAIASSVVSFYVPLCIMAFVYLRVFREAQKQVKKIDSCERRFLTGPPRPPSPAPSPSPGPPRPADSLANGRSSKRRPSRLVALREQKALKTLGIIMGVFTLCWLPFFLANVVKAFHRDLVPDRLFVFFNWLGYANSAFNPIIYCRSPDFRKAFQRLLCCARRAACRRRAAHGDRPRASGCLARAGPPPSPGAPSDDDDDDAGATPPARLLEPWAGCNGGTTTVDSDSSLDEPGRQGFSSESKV
Sequence of β3-adrenoceptor (M3YEU4 entry or part of it): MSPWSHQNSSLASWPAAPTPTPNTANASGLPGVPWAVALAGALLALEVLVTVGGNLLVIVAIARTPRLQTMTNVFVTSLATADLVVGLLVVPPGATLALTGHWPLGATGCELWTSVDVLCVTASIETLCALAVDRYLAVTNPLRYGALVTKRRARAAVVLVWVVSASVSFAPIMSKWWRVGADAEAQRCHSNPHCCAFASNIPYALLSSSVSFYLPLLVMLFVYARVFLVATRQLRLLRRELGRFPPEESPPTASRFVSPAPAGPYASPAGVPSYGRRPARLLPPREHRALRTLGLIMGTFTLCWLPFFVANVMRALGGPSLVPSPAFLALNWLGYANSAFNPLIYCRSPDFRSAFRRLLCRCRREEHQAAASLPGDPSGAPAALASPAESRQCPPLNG

With `C[C@H](NCCc1ccc(OC(C)(C)C(=O)O)cc1)[C@H](O)c1ccc(O)cc1` [Compound 10, 2-[4-[2-[[(1S,2R)-2-Hydroxy-2-(4-hydroxyphenyl)-1-methyl-ethyl]amino]ethyl]phenoxy]-2-methylpropionic acid], the EC50 on β2-adrenoceptor is 3.9 µM.
On to `Cc1cc(CCN[C@@H](C)[C@H](O)c2ccc(O)cc2)ccc1OC(C)(C)C(=O)O` [Compound 12], for which the EC50 on β2-adrenoceptor and on β1-adrenoceptor was greater than 100 µM in each case.
In the case of `C[C@H](Cc1ccc(OCC(=O)O)cc1)NC[C@H](O)c1cccc(Cl)c1` [BRL-37344, reference compound], the EC50 turned out to be 0.009 µM at β2-adrenoceptor, 1.6 nM at β3-adrenoceptor and 0.27 µM at β1-adrenoceptor.
Consider `C[C@H](NCCc1ccc(NC(C)(C)C(=O)O)cc1Cl)[C@H](O)c1ccc(O)cc1` [Compound 14, 2-[[3-Chloro-4-[2-[[(1S,2R)-2-hydroxy-2-(4-hydroxyphenyl)-1-methylethyl]amino]ethyl]phenyl]amino]-2-methylpropionic acid], for which the EC50 was determined as 1.4 µM on β2-adrenoceptor and 2.2 µM at β1-adrenoceptor.
Consider `C[C@H](NCCc1ccc(NC(C)(C)C(=O)O)cc1)[C@H](O)c1ccc(O)cc1` [Compound 13, 2-[[4-[2-[[(1S,2R)-2-Hydroxy-2-(4-hydroxyphenyl)-1-methyl-ethyl]amino]ethyl]phenyl]amino]-2-methylpropionic acid], for which the EC50 on β2-adrenoceptor stood at 11 µM; on β1-adrenoceptor it was 39 µM.
On the same counts, the results for `C[C@H](NCCc1ccc(OC(C)(C)C(=O)O)c(Cl)c1)[C@H](O)c1ccc(O)cc1` [Compound 11, 2-[2-Chloro-4-[2-[[(1S,2R)-2-hydroxy-2-(4-hydroxyphenyl)-1-methylethyl]amino]ethyl]phenoxy]-2-methylpropionic acid] are 38 µM and greater than 100 µM.
For `CCOC(=O)C(C)(C)Oc1ccc(CCN[C@@H](C)[C@H](O)c2ccc(O)cc2)c(Cl)c1` [Compound 7, Ethyl 2-[3-chloro-4-[2-[[(1S,2R)-2-hydroxy-2-(4-hydroxy-phenyl)-1-methylethyl]amino]ethyl]phenoxy]-2-methyl-propionate hydrochloride] the same measures were 0.045 µM and 0.3 µM.
For `C[C@H](NCCc1ccc(OC(C)(C)C(=O)O)cc1Cl)[C@H](O)c1ccc(O)cc1` [Compound 9, 2-[3-Chloro-4-[2-[[(1S,2R)-2-hydroxy-2-(4--hydroxyphenyl)-1-methylethyl]amino]ethyl]phenoxy]-2-methylpropionic acid], the EC50 at β2-adrenoceptor was found to be 3.1 µM; on β1-adrenoceptor it was 35 µM. Moreover, the “death of animals in acute toxicity test” value is “no death was observed” with male ICR rats (male ICR rats of 4 weeks age, intravenous, 400 mg/kg, during 24 hours after administration, 400 mg/kg) and “No death of animals was observed” in the data set on male ICR rats (male ICR rats of 4 weeks age, intravenous, 400 mg/kg, during 24 hours after administration; 400 mg/kg)).
